Results on one compound are retold here after US20050106305A1, “Beverage compositions comprising monatin and methods of making same” (Cargill, Inc., priority 2003, published 2005).

The nature of series [1]: Sweetness dose response of monatin and saccharin, model system pH 3.2. The series is classed as in vivo. The procedure:
Sweetness of monatin and saccharin was assessed using 20 trained sensory evaluators, making judgements in duplicate. Test and reference solutions were prepared in citric/citrate buffer at pH 3.2. […] The plateau above 10% SEV indicates absence/low levels of “mixture-suppressing” off-tastes and aftertastes. The shape of monatin's dose-response curve is similar to those of aspartame, sucralose and alitame, all of which are “quality” sweeteners.

A short description of series [2]: Stability of monatin at pH 3 with increasing temperatures. In kind it is physicochemical. The procedure: A sample of synthetic monatin was subjected to pH 3 at temperatures of 25° C., 50° C. and 100° C. At room temperature and pH 3, a 14% loss in monatin was observed over a period of 48 hours. This loss was attributed to lactone formation. At 50° C. and pH 3, a 23% loss in monatin was observed over a period of 48 hours. This loss was attributed to lactone formation and the buildup of an unknown compound after about 15.5 minutes. […] The major detectable component was an unknown at 15.5 minutes.

The mark [3] stands for this setting: sole sweetener in the model system (pH 3.2).

As for `NC(CC(O)(Cc1c[nH]c2ccccc12)C(=O)O)C(=O)O` (racemic) [Monatin, 2-hydroxy-2-(indol-3-ylmethyl)-4-aminoglutaric acid], in series [1] (setting [3]), the Aftertaste entry was “slight “aspartame-like” aftertaste”. Also, the sweet taste decay entry in series [1] (setting [3]) is “quite rapid”. Besides, the sweet taste onset entry in series [1] (setting [3]) is listed as “slight delay”. For the same compound, the cooling sensation entry in series [1] (sole sweetener, un-flavored systems (pH 3.2)) is given as “residual cooling sensation”. Further, the loss in monatin in series [2] (50° C. and pH 3, over 48 hours) is 23%; in series [2] (100° C. and pH 3, after 24 hours), “nearly all monatin was lost”; in series [2] (room temperature (25° C.) and pH 3, over 48 hours) it was 14%.
